Results: US10267737B2, “Near-infrared fluorescent probe for detecting alkaline phosphatase and manufacturing method thereof” (KOREA RESEARCH INSTITUTE OF BIOSCIENCE AND BIOTECHNOLOGY, priority 2016, dated 2019)

Assays:
[1] = test system: ALP; assay: Evaluation of selective ALP detection; format: biochemical; settings: versus BSA, trypsin, lysozyme, AcHE, GOx, uricase, thrombin
From the text: ALP, BSA, trypsin, lysozyme, acetylcholinesterase (AcHE), glucose oxidase (GOx), uricase and thrombin were used for the evaluation.

[2] = Fluorescence stability (photostability) test; format: physicochemical; settings: 685 nm light, 150-W xenon lamp, 1 hour, Tris-HCl 10 mM, pH 7.4
Procedure: The photostability of a fluorescent probe is important for in-vitro and in-vivo fluorescence detection. Therefore, the photostability of the NIR-Phos-1 and NIR-Phos-2 fluorescent probes was evaluated by irradiating light at 685 nm from a 150-W xenon lamp for 1 hour in a Tris-HCl buffer (10 mM, pH 7.4) and measuring the change in fluorescence intensity.

[3] = Affinity for calcium salts, NIR fluorescence imaging; format: binding; settings: PBS buffer
Procedure: The affinity of the NIR-Phos-1 and NIR-Phos-2 fluorescent probes for a calcium salt-containing scaffold was evaluated. As the scaffold, calcium carbonate (CC), calcium phosphate (CP), hydroxyapatite (HA), calcium perchlorate (CPC), calcium chloride (CCH) and calcium nitrate (CN) were used. The fluorescent probe and the scaffold were immersed in a PBS buffer and subjected to NIR fluorescence imaging.

[4] = test system: ALP; assay: Evaluation of sensitivity for ALP with ALP inhibitor p-BTO pre-treatment; format: biochemical; settings: for sensitivity for ALP: with and without p-BTO pre-treatment
Procedure: After pre-treating with the ALP inhibitor p-BTO (p-bromotetramisole oxalate) at 1-2.5 mM, the fluorescent probe was mixed with ALP.

[5] = test system: ALP; assay: Fluorescence response depending on ALP concentration; format: biochemical; settings: for new absorption peak in the presence of ALP: probe 5 μM, ALP 0.1 UmL^−1, Tris-HCl 10 mM, pH 7.4; for fluorescence due to dephosphorylation of ALP: λex=685 nm
Procedure: Reactivity depending on ALP concentration was evaluated for the NIR-Phos-1 and NIR-Phos-2 fluorescent probes. After dissolving the fluorescent probe (5 μM) in a Tri-HCl buffer (10 mM, pH 7.4), the fluorescence spectrum occurring as a result of reaction with ALP (0.1 UmL^−1) was investigated.
From FIG. 5B and FIG. 5D, it can be seen that fluorescence spectra are changed variously by adding a Tris-HCl buffer (10 mM, pH 7.4) to ALP (10^−5 to 1.0 UmL^−1) of various concentrations.

[6] = Affinity for scaffold, light absorption of probe solution after adsorption; format: binding; settings: CDHA scaffold
[7] = as above; format: binding; settings: CDHA/DCPD scaffold

SMILES	selective detection of ALP [1]	photostability (change in fluorescence intensity) [2]	affinity for hydroxyapatite (HA) particles compared to calcium salts CC, CP, CPC, CCH, CN [3]	sensitivity for ALP [4]	new absorption peak in the presence of ALP [5] [nm]	fluorescence due to dephosphorylation of ALP [5] [nm]	hydrolysis of the fluorescent probe and ALP ([4]; p-BTO 1-2.5 mM pre-treatment, fluorescence intensity decreased gradually as p-BTO concentration increased)	decrease of light absorption by the probe solution after adsorption [6] [%]	decrease of light absorption by the probe solution after adsorption [7] [%]
CC[N+]1=C(/C=C/C2=C3Oc4cc(OP(=O)(O)O)ccc4C=C3CCC2)C(C)(C)c2cc(S(=O)(=O)[O-])ccc21 [NIR-Phos-2, (E)-1-ethyl-3,3-dimethyl-2-(2-(6-(phosphonooxy)-2,3-dihydro-1H-xanthen-4-yl)vinyl)-3H-indol-1-ium-5-sulfonate]	selectively detect ALP only	superior photostability	higher affinity	good sensitivity	710	710			
Brc1ccc(C2CN3CCSC3=N2)cc1.O=C(O)C(=O)O (stereo not drawn) [p-BTO, p-bromotetramisole oxalate, reference compound]							inhibited		
CC[N+]1=C(/C=C/C2=C3Oc4cc(OCc5ccc(OP(=O)(O)O)cc5)ccc4C=C3CCC2)C(C)(C)c2cc(S(=O)(=O)[O-])ccc21 [NIR-Phos-1, (E)-1-ethyl-3,3-dimethyl-2-(2-(6-((4-(phosphonooxy)benzyl)oxy)-2,3-dihydro-1H-xanthen-4-yl)vinyl)-3H-indol-1-ium-5-sulfonate]	selectively detect ALP only	superior photostability	higher affinity	good sensitivity	710	710		29.4	3.8
